Article PMC7607171, “Optimized low‐dose combinatorial drug treatment boosts selectivity and efficacy of colorectal carcinoma treatment” (Molecular Oncology, 2020)
Where two headings read alike, the source gives them in different places. One block for each molecule: values may come before it.

Assays:
DLD1 tumors = test: Subcutaneous xenograft tumor growth; assay type: in vivo, Swiss nu/nu mice
Experimental: All procedures including animal use were performed in accordance with the Institutional Ethical Committee of Animal Care in Geneva and the Swiss Cantonal Veterinary Office (Authorization number GE‐136‐19). Briefly, female and male Swiss nu/nu mice aged 6–8 weeks were obtained from Charles River (Écully, France). For subcutaneous xenografts mice were inoculated in the left flank with 5x10^6 DLD1 or SW620 cells suspended in 100 µL of cell culture medium, supplemented with 1% FBS.
Drugs were administered through oral gavage based on average body weight of the males (100 µL/mouse) and females (80 µL/mouse) at various concentrations, see Tables S10 and S11.
Solution A: step (1) 30% PEG 400 + 5% propylene glycol + 0.5% Tween 80 and (2) 64.5% sterile H2O. Solution B: step (1) 10% DMSO, (2) 30% PEG 300 + 5% Tween 80 and (3) 55% sterile H2O. […] FOLFOX was administered as 6 mg/kg oxaliplatin two hours before administration of 90 mg/kg leucovorin and 50 mg/kg (DLD1) or 25 mg/kg (SW620) 5‐fluorouracil at day 1 and a repeat of 5‐fluorouracil dosing on day 2.
The Bliss independence model can be used to evaluate the drug interaction potential of a drug mixture. […] The model is based on the probability theory and requires the drug activity of each drug at the selected dose to predict the inhibition rate (IR) at additive doses.

[1] = Pharmacokinetics, dried blood spot LC-MS/MS, mice with SW620 tumors; assay type: in vivo; conditions: for Tmax / AUC(0-t) / Cmax: Swiss Nu/nu, mouse, whole blood (dried blood spot), po, regorafenib 30, vemurafenib 75, GDC-0994 10 mg/kg; for AUC(0-t) / Cmax: whole blood, mean ± SD; for AUC(0-t): oral, read-out: AUC0-24h; for increase of AUC as part of the ODC vs single-drug treatment: mice bearing SW620 tumors, AUC0-24h
Experimental: The pharmacokinetic (PK) study was performed using the dried blood spot method. Mice were treated with CTRL, ODCs, and corresponding monotherapies as described above. To determine the disposition in blood in the first 24h, blood samples (5 µL/mouse) were collected from the tail vein (n = 4 mice) at 2h, 4h, 8h, and 24h time points and transferred onto paper (a filter paper 903 protein saver card from Whatman (MA, USA)). A disk with the entire spot was punched from the paper card and transferred to the HPLC vial tube. Hundred µL of MeOH containing a mix of internal standards was added, and the tube was vortex‐mixed for about 1 min before injecting 10 µL into the LC‐MS/MS system. The LC‐MS/MS system consisted of an API 4,000 triple quadrupole mass spectrometer (AB sciex, Concord, ON, Canada) controlled by analyst 1.6.1 software. The mass spectrometer was operated in the multiple reaction monitoring (MRM) mode with positive electrospray ionization. The instrument was coupled with an Agilent series 1100 (Waldbronn, Germany) LC system. Chromatography was performed on a Phenomenex Kinetex C18 analytical column (50 mm x 2.1 mm, 2.6 um; Torrance, CA, USA). The flow rate was 0.5 mL/min using gradient elution conditions. The method was fully validated before application to this pharmacokinetic study.

[2] = 0-24h, oral, cited from earlier work
SW620 cells = test: CellTiter-Glo metabolic ATP activity assay, 2D culture; assay type: cell-based, human; conditions: low-dose single drug (hormetic dose effect)
Experimental: Drugs were dissolved in DMSO and stored at −80, and aliquots were thawn prior to each use. Drugs were dissolved at concentrations resulting in in vitro experimental conditions 0.15% DMSO maximum in the culture medium. […] The 48‐hour retreatment was performed by adding another volume of media containing a 1x concentration of drugs to not affect the final concentration in the wells.
Drug treatment activity in 2D and 3D cultures was measured using the CellTiter‐Glo® cell metabolic activity (ATP) assays (G7572 and G9683, Promega, Madison, WI, USA), according to the manufacturer`s instructions. Assay bioluminescence was detected using the BioTek Cytation 3 and corresponding Gen5 Image software version 3.04 at standard settings.
The next step is the drug combination screening in Search 1 (11 drugs in 155 combinations) according to the OACD resolution IV matrix and performed in the CRC and the nonmalignant CCD841CoN cell simultaneously. The resulting output of the drug combination activity was measured in cell metabolic activity (ATP levels, % CTRL) to represent cell viability and consisted of the average of technical triplicate values. The experimental data points are then used for step‐wise second‐order linear regression analysis by Matlab®. This model mathematically describes the relationship between the drug combination input and output activity of each possible two‐drug combination. […]

HCT116 cells = test: Tunneling nanotubule (TNT) quantification, F-actin/DAPI staining; assay type: cell-based, human
[3] = regorafenib 15 mg/kg, Exp 5, Day 16
[4] = regorafenib 30 mg/kg, Exp 2, Day 14
[5] = regorafenib 30 mg/kg, Exp 5, Day 16
[6] = regorafenib 50 mg/kg, Exp 3, Day 13
[7] = given as part of SW620-specific ODC
[8] = selumetinib 1 mg/kg, Exp 6, Day 18
[9] = selumetinib 5 mg/kg, Exp 5, Day 16
[10] = selumetinib 5 mg/kg, Exp 7, Day 25
[11] = selumetinib 10 mg/kg, Exp 5, Day 16
[12] = selumetinib 25 mg/kg, Exp 3, Day 13
[13] = vemurafenib 25 mg/kg, Exp 2, Day 14
[14] = vemurafenib 75 mg/kg b.i.d., Exp 3, Day 13
[15] = vemurafenib 75 mg/kg, Exp 2, Day 14
[16] = vemurafenib 75 mg/kg, Exp 5, Day 16
[17] = vemurafenib 75 mg/kg, Exp 7, Day 15
[18] = vemurafenib 150 mg/kg b.i.d., Exp 4, Day 16

- Tmax [1, 7]: 4 h
- AUC(0-t) [1, 7]: 22200 ± 1830 ng·h/mL
- Cmax [1, 7]: 1610 ± 220 ng/mL
- Tmax ([1]; mono): 4 h
- AUC(0-t) ([1]; mono): 9860 ± 1930 ng·h/mL
- Cmax ([1]; mono): 710 ± 260 ng/mL
- increase of AUC as part of the ODC vs single-drug treatment [1]: 2.2 x
Structure (SMILES): CNC(=O)c1cc(Oc2ccc(NC(=O)Nc3ccc(Cl)c(C(F)(F)F)c3)c(F)c2)ccn1 [regorafenib]
- % CTRL (tumor volume) (DLD1 tumors; [3]): 87 75 34 % CTRL
- Volume (DLD1 tumors; [3]): 559 479 214 mm^3
- % CTRL (tumor volume) (DLD1 tumors; regorafenib 15 mg/kg, Exp 7, Day 15): 96 24 38 % CTRL
- % CTRL (tumor volume) (DLD1 tumors; [4]): 85 46 20 % CTRL
- Volume (DLD1 tumors; [4]): 594 320 143 mm^3
- % CTRL (tumor volume) (DLD1 tumors; [5]): 63 56 25 % CTRL
- Volume (DLD1 tumors; [5]): 404 358 160 mm^3
- % CTRL (tumor volume) (DLD1 tumors; [6]): 135 76 29 % CTRL
- Volume (DLD1 tumors; [6]): 465 261 99 mm^3
- AUC ([2]; 160 mg/kg, 3 wk on/ 1 wk off, ref 12): 50260 ng·h/mL
- AUC ([2]; 160 mg/kg, 3 wk on/ 1 wk off, ref 13): 58300 ng·h/mL

- Tmax [1, 7]: 2 h
- AUC(0-t) [1, 7]: 890 ± 130 ng·h/mL
- Cmax [1, 7]: 230 ± 80 ng/mL
- Tmax ([1]; mono): 2 h
- AUC(0-t) ([1]; mono): 770 ± 140 ng·h/mL
- Cmax ([1]; mono): 240 ± 80 ng/mL
- increase of AUC as part of the ODC vs single-drug treatment [1]: 1.2 x
Structure (SMILES): Cn1cnc2c(F)c(Nc3ccc(Br)cc3Cl)c(C(=O)NOCCO)cc21 [selumetinib]
- % CTRL (tumor volume) (DLD1 tumors; [8]): 74 29 12 % CTRL
- Volume (DLD1 tumors; [8]): 366 142 58 mm^3
- % CTRL (tumor volume) (DLD1 tumors; [9]): 37 39 20 % CTRL
- Volume (DLD1 tumors; [9]): 237 234 125 mm^3
- % CTRL (tumor volume) (DLD1 tumors; [10]): 67 50 25 % CTRL
- Volume (DLD1 tumors; [10]): 408 223 79 mm^3
- % CTRL (tumor volume) (DLD1 tumors; selumetinib 10 mg/kg, Exp 4, Day 16): 82 49 22 % CTRL
- % CTRL (tumor volume) (DLD1 tumors; [11]): 33 18 8 % CTRL
- Volume (DLD1 tumors; [11]): 213 117 52 mm^3
- % CTRL (tumor volume) (DLD1 tumors; [12]): 49 33 13 % CTRL
- Volume (DLD1 tumors; [12]): 168 112 46 mm^3
- % CTRL (tumor volume) (DLD1 tumors; selumetinib 50 mg/kg, Exp 2, Day 14): 39 16 7 % CTRL

Structure (SMILES): CCCS(=O)(=O)Nc1ccc(F)c(C(=O)c2c[nH]c3ncc(-c4ccc(Cl)cc4)cc23)c1F [vemurafenib]
- effect on cell viability (SW620 cells): increased cell viability
- cells forming tunneling nanotubules (TNTs, > 10 µm) (HCT116 cells; single drug (CTRL 9.5%)): 14.0%
- TNT length (HCT116 cells; single drug (CTRL 21 µm), nonsignificant): 32 µm
- % CTRL (tumor volume) (DLD1 tumors; [13]): 80 33 19 % CTRL
- Volume (DLD1 tumors; [13]): 562 231 133 mm^3
- % CTRL (tumor volume) (DLD1 tumors; [14]): 113 88 39 % CTRL
- Volume (DLD1 tumors; [14]): 388 304 136 mm^3
- % CTRL (tumor volume) (DLD1 tumors; [15]): 87 46 23 % CTRL
- Volume (DLD1 tumors; [15]): 612 319 160 mm^3
- % CTRL (tumor volume) (DLD1 tumors; [16]): 94 31 14 % CTRL
- Volume (DLD1 tumors; [16]): 600 200 89 mm^3
- % CTRL (tumor volume) (DLD1 tumors; [17]): 123 69 24 % CTRL
- Volume (DLD1 tumors; [17]): 619 347 123 mm^3
- % CTRL (tumor volume) (DLD1 tumors; [18]): 105 64 28 % CTRL
- Volume (DLD1 tumors; [18]): 587 354 159 mm^3
- Tmax [1, 7]: 4 h
- AUC(0-t) [1, 7]: 48200 ± 5720 ng·h/mL
- Cmax [1, 7]: 4710 ± 650 ng/mL
- Tmax ([1]; mono): 2 h
- AUC(0-t) ([1]; mono): 19400 ± 3250 ng·h/mL
- Cmax ([1]; mono): 2560 ± 640 ng/mL
- increase of AUC as part of the ODC vs single-drug treatment [1]: 2.5 x
- AUC ([2]; 960 mg/kg twice daily): 131000 ng·h/mL
- AUC ([2]; 960 mg/kg twice daily, ref EPAR 002409): 21100 ng·h/mL
